Data as given in US6747021B2, “Cryptophycin compound” (Eli Lilly and Company, priority 2000, dated 2004).
Where two headings read alike, the source gives them in different places.

Tests used:
[1] = test system: MAMMARY ADENOCARCINOMA 16/C; format: in vivo, murine; details: C3H/HeN female mice
Excerpt: (§1) Inhibition of tumors transplanted into mice is an accepted procedure for studying the efficacy of antitumor agents (Corbett, et al., In vivo Methods for Screening and Preclinical Testing; Use of rodent solid tumors for drug discovery., In: Anticancer Drug Development Guide: Preclinical Screening, Clinical Trials, and Approval, B. Teicher (ed), Humana Press Inc., Totowa, N.J., Chapter 5, pages 75-99 (1997); (Corbett, et al., Int. J. Pharmacog., 33, Supplement, 102-122 (1995)). Murine tumors or human xenographs were implanted essentially as described by Corbett in In vivo Methods for Screening and Preclinical Testing; Use of rodent solid tumors for drug discovery. Briefly, the murine tumor or human xenograph was implanted subcutaneously using either 12-gauge trocar implants or counted number of cells. The location for the trocar insertion is midway between the axillary and inguinal region along the side of the mouse. The trocar is slipped approximately ¾ of an inch subcutaneously up toward the axilla before discharging the tumor fragment, and pinching the skin as the trocar is removed. Alternatively, human tumor cells prepared from a […] of donor tumors (5×10^6 cells) were implanted subcutaneously in a hind-leg of a male or female nude mouse (Charles River). Either a test compound in vehicle or vehicle alone was administered by intravenous bolus injection (iv), intraperitoneal injection (ip), or oral gavage (po). Each treatment group, as well as a group of untreated control animals, consisted of five animals per group in each experiment. Subcutaneous tumor response was monitored by tumor volume measurement performed twice each week over the course of the experiment (60-120 days). Body weights were taken as a general measure of toxicity. The subcutaneous tumor data were analyzed by determining the median tumor weight for each treatment group over the course of the experiment and calculating the tumor growth delay as the difference in days for the treatment versus the control tumors to reach a volume of either 500 or 1000 mm^3.
(§2) Cryptophycin-309 (309) was tested against a variety of murine and human tumors substantially as described supra. Cryptophycin-55 glycinate (55-GLY), Taxol, and Adriamycin (Adria) were also included in certain tests for purposes of comparison. Cryptophycin 55 glycinate is known in the art (WO 98/08505, Example 9) and has the following structure: [drawing 9]
(§3) Tumor Weight(mg)=(a×b^2)/2 where a=tumor length (mm) and b=tumor width (mm).
(§4) Tumor Growth Delay=T−C where T is the median time (days) required for the treatment group tumors to reach a predetermined size, and C is the median time (days) for the control group tumors to reach the same size. Tumor-free survivors are excluded from this calculation, and are tabulated separately (Tumor Free).
(§5) Log Kill=Tumor Growth Delay/(3.32)(Td)
(§6) where Tumor Growth Delay is as previously defined and Td is tumor volume doubling time (days), estimated from the best fit straight line from a log-linear growth plot of the control group of tumors in exponential growth (100-800 mg range)
(§7) %T/C mass—The treatment and control groups are measured when the control group tumors reach approximately 700 to 1200 mg in size (median group). The median tumor weight of each group is determined (including zeros). The T/C value in percent is an indication of antitumor effectiveness. A T/C≦42% is considered significant antitumor activity. A T/C<10% is considered to indicate highly significant antitumor activity.
(§8) Body Weight Loss Nadir—A body weight loss nadir (mean of group) of greater than 20% or drug deaths greater than 20% are considered to indicate an excessively toxic dosage in single course trials.
(§9) Activity Rating—the Activity Rating is derived from the Log Kill according to the following table: […]

[2] = test system: MAMMARY ADENOCARCINOMA-17/ADR/Resist.; format: in vivo, murine; details: IV 30 mg/kg/inj days 1,3,5,7,9; total dose 150 mg/kg; C3H female mice
Excerpt: as §1, §2, §3, §4, §5, §6, §7, §8, §9

[3] = test system: PANCREATIC DUCTAL ADENOCARCINOMA #02; format: in vivo, murine; details: BDF1 female mice
Excerpt: as §1, §2, §3, §4, §5, §6, §7, §8, §9

[4] = test system: COLON ADENOCARCINOMA-26/A; format: in vivo, murine; details: Balb/C female mice
Excerpt: as §1, §2, §3, §4, §5, §6, §7, §8, §9

[5] = test system: MAMMARY ADENOCARCINOMA-16/C/Adr; test: Early stage murine mammary adenocarcinoma-16/C/Adr subcutaneous tumor assay; format: in vivo; details: IV 20 mg/kg/inj days 1,3,5,7,9; total dose 100 mg/kg; C3H female mice
Excerpt: as §1, §2, §3, §4, §5, §6, §7, §8, §9

[6] = IV 20 mg/kg/inj days 3,5,7,9,11, total dose 100 mg/kg
[7] = IV 30 mg/kg/inj days 3,5,7,9,11, total dose 150 mg/kg
[8] = IV 20 mg/kg/inj days 1,3,5,7,9, total dose 100 mg/kg, experiment #
[9] = IV 30 mg/kg/inj days 1,3,5,7,9, total dose 150 mg/kg, experiment #
[10] = IV 33 mg/kg/inj days 1,3,5,7,9, total dose 165 mg/kg, experiment ##
[11] = IV 15 mg/kg/inj days 1,3,5,7,9, total dose 75 mg/kg
[12] = IV 23 mg/kg/inj days 1,3,5,7,9, total dose 115 mg/kg
[13] = IV 35 mg/kg/inj days 1,3,5,7,9, total dose 175 mg/kg

COc1ccc(C[C@H]2NC(=O)/C=C/C[C@@H]([C@H](C)[C@@H](OC(=O)CN)[C@@H](Cl)c3ccccc3)OC(=O)[C@H](CC(C)(C)C)OC(=O)[C@H](C)CNC2=O)cc1Cl [Cryptophycin 309, Cryptophycin-309]
% T/C MASS [1, 6]: 0% | ACTIVITY RATING [1, 6]: ++++ (>2.8) | DRUG DEATHS [1, 6]: 0/5 | GROWTH DELAY [1, 6]: 17 days | LOG KILL [1, 6]: 3.9 | MEDIAN TUMOR WEIGHT [1, 6]: 0 mg | % T/C MASS [1, 7]: 0% | ACTIVITY RATING [1, 7]: ++++ (>2.8) | DRUG DEATHS [1, 7]: 0/5 | GROWTH DELAY [1, 7]: 16.5 days | LOG KILL [1, 7]: 3.8 | MEDIAN TUMOR WEIGHT [1, 7]: 0 mg | % T/C MASS [2]: 0% | ACTIVITY RATING [2]: ++++ (>2.8) | DRUG DEATHS [2]: 0/5 | GROWTH DELAY [2]: 10.75 days | LOG KILL [2]: 3.23 | MEDIAN TUMOR WEIGHT [2]: 0 mg | % T/C MASS [3, 8]: 3.8% | ACTIVITY RATING [3, 8]: ++ (1.3-1.9) | DRUG DEATHS [3, 8]: 0/5 | GROWTH DELAY [3, 8]: 13 days | LOG KILL [3, 8]: 1.7 | MEDIAN TUMOR WEIGHT [3, 8]: 63 mg | % T/C MASS [3, 9]: 3.8% | ACTIVITY RATING [3, 9]: ++ (1.3-1.9) | DRUG DEATHS [3, 9]: 0/5 | GROWTH DELAY [3, 9]: 13 days | LOG KILL [3, 9]: 1.7 | MEDIAN TUMOR WEIGHT [3, 9]: 64 mg | % T/C MASS [3, 10]: 0% | ACTIVITY RATING [3, 10]: +++ (2.0-2.8) | DRUG DEATHS [3, 10]: 0/5 | GROWTH DELAY [3, 10]: 15.25 days | LOG KILL [3, 10]: 2.7 | MEDIAN TUMOR WEIGHT [3, 10]: 0 mg | % T/C MASS [4, 11]: 14% | ACTIVITY RATING [4, 11]: + (0.7-1.2) | DRUG DEATHS [4, 11]: 0/5 | GROWTH DELAY [4, 11]: 6.65 days | LOG KILL [4, 11]: 1.2 | MEDIAN TUMOR WEIGHT [4, 11]: 126 mg | % T/C MASS [4, 12]: 0% | ACTIVITY RATING [4, 12]: +++ (2.0-2.8) | DRUG DEATHS [4, 12]: 0/5 | GROWTH DELAY [4, 12]: 12.75 days | LOG KILL [4, 12]: 2.3 | MEDIAN TUMOR WEIGHT [4, 12]: 0 mg | % T/C MASS [4, 13]: 0% | ACTIVITY RATING [4, 13]: +++ (2.0-2.8) | DRUG DEATHS [4, 13]: 0/5 | GROWTH DELAY [4, 13]: 15.25 days | LOG KILL [4, 13]: 2.7 | MEDIAN TUMOR WEIGHT [4, 13]: 0 mg | % T/C MASS [5]: 0% | ACTIVITY RATING [5]: ++++ (>2.8) | DRUG DEATHS [5]: 0/5 | GROWTH DELAY [5]: 11 days | LOG KILL [5]: 3.0 | MEDIAN TUMOR WEIGHT [5]: 0 mg
